Assay results from ChEMBL document CHEMBL1138586 (Bioorg Med Chem Lett, 2009).

Key:
[1] = Fraction unbound in human plasma at 10 uM after 30 mins; type: ADME, cell-free
[2] = target: T1, Voltage-gated inwardly rectifying potassium channel KCNH2 (Homo sapiens, UniProt Q12809); assay: Inhibition of human ERG expressed in HEK293 cells by patch-clamp method; type: cell-based
Prothrombin = Prothrombin (Homo sapiens, UniProt P00734); assay: Inhibition of thrombin
[3] = Inhibition of trypsin
[4] = target: Tissue-type plasminogen activator (Homo sapiens, UniProt P00750); assay: Inhibition of tissue plasminogen activator
Tissue-type plasminogen activator, sequence (P00750 whole entry): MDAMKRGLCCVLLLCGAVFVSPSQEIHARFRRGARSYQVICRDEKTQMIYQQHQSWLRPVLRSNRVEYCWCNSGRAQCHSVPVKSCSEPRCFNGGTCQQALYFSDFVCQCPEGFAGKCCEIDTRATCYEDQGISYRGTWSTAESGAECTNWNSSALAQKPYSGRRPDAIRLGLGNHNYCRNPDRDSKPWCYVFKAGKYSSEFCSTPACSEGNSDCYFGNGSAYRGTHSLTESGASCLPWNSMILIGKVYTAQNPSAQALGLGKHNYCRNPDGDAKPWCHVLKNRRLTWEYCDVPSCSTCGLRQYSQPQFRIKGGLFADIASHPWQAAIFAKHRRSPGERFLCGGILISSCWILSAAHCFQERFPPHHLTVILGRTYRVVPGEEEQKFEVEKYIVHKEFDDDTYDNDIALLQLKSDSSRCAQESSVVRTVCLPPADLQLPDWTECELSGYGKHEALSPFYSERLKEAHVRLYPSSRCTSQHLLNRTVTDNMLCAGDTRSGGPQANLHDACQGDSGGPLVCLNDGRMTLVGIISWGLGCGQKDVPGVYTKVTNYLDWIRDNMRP

[5] = target: Vitamin K-dependent protein C (Homo sapiens, UniProt P04070); assay: Inhibition of activated anticoagulant protein C
Vitamin K-dependent protein C, sequence (P04070 43-197 limits assumed): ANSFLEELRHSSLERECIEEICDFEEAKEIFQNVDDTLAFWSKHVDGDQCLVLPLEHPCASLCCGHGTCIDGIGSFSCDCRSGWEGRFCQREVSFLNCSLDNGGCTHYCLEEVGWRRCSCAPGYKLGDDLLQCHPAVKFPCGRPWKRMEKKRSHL
Vitamin K-dependent protein C, sequence (P04070 212-461 limits assumed): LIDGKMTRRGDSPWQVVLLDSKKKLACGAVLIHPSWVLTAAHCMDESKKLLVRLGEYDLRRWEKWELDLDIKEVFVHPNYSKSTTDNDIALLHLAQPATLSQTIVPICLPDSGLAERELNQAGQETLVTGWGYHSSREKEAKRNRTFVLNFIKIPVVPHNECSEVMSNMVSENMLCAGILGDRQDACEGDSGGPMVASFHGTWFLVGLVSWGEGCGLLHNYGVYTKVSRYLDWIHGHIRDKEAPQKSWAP

Plasminogen = Plasminogen (Homo sapiens, UniProt P00747); assay: Inhibition of plasmin
Plasminogen, sequence (P00747 97-580 limits assumed): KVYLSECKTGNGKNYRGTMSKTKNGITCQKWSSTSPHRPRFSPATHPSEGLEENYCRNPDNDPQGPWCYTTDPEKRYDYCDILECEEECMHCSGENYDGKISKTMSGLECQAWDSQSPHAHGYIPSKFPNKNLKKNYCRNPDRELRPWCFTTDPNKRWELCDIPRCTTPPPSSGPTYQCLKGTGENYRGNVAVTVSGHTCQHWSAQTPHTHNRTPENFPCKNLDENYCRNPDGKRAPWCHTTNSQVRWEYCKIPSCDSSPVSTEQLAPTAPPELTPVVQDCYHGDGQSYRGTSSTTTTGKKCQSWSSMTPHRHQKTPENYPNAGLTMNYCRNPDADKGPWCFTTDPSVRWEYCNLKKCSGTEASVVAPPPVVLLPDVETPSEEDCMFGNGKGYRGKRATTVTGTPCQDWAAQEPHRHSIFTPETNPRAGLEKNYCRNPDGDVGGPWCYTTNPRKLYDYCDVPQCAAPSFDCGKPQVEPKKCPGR
Plasminogen, sequence (P00747 581-810 limits assumed): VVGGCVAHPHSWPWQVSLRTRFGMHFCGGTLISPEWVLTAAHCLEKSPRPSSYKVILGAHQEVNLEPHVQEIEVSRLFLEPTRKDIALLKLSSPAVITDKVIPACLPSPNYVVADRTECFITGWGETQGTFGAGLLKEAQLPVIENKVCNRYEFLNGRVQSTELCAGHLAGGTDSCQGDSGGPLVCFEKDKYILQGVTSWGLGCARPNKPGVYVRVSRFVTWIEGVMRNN

[6] = Inhibition of kallikrein
[7] = Oral bioavailability in rat at 6 mg/kg; type: ADME, organism-based; conditions: in vivo
[8] = Half life in rat at 0.2 mg/kg, iv and 6 mg/kg, po; type: ADME, organism-based; conditions: in vivo
[9] = Clearance in rat at 0.2 mg/kg, iv and 6 mg/kg, po; type: ADME, organism-based; conditions: in vivo
[10] = Volume of distribution in rat at 0.2 mg/kg, iv and 6 mg/kg, po; type: ADME, organism-based; conditions: in vivo
[11] = AUC in rat at 6 mg/kg, po; type: ADME, organism-based; design: dose 6 mg/kg, route oral; conditions: plasma
[12] = Oral bioavailability in Beagle dog at 1 mg/kg; type: ADME, organism-based, Canis lupus familiaris; conditions: in vivo
[13] = Half life in Beagle dog at 0.1 mg/kg, iv and 1 mg/kg, po; type: ADME, organism-based, Canis lupus familiaris; conditions: in vivo
[14] = Clearance in Beagle dog at 0.1 mg/kg, iv and 1 mg/kg, po; type: ADME, organism-based, Canis lupus familiaris; conditions: in vivo
[15] = Volume of distribution in Beagle dog at 0.1 mg/kg, iv and 1 mg/kg, po; type: ADME, organism-based, Canis lupus familiaris; conditions: in vivo
[16] = AUC in Beagle dog at 1 mg/kg, po; type: ADME, organism-based, Canis lupus familiaris; design: dose 1 mg/kg, route oral; conditions: plasma
[17] = Oral bioavailability in cynomolgus monkey at 1 mg/kg; type: ADME, organism-based, Macaca fascicularis; conditions: in vivo
[18] = Half life in cynomolgus monkey at 0.1 mg/kg, iv and 1 mg/kg, po; type: ADME, organism-based, Macaca fascicularis; conditions: in vivo
[19] = Clearance in cynomolgus monkey at 0.1 mg/kg, iv and 1 mg/kg, po; type: ADME, organism-based, Macaca fascicularis; conditions: in vivo
[20] = Volume of distribution in cynomolgus monkey at 0.1 mg/kg, iv and 1 mg/kg, po; type: ADME, organism-based, Macaca fascicularis; conditions: in vivo
[21] = AUC in cynomolgus monkey at 1 mg/kg, po; type: ADME, organism-based, Macaca fascicularis; design: dose 1 mg/kg, route oral; conditions: plasma
[22] = target: T1, Voltage-gated inwardly rectifying potassium channel KCNH2
[23] = Oral bioavailability in Sprague-Dawley rat at 6 mg/kg; type: ADME, organism-based; conditions: in vivo
Coagulation factor X = Coagulation factor X (Homo sapiens, UniProt P00742); assay: Inhibition of Factor 10a
Coagulation factor X, sequence (P00742 41-179 limits assumed): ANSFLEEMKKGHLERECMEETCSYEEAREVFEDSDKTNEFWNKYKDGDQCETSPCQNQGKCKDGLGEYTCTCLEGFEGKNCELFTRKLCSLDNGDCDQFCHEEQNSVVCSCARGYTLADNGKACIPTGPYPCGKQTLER
Coagulation factor X, sequence (P00742 235-488 limits assumed): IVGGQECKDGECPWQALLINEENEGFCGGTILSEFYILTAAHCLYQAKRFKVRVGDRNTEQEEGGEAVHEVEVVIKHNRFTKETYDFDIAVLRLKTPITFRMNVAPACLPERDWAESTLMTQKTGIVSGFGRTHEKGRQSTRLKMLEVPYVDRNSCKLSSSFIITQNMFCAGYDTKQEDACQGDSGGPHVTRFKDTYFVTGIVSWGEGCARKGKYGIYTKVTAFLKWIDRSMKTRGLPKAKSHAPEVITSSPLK

[24] = Metabolic stability in human liver S9 fraction at 1 uM by HPLC; type: ADME, subcellular
[25] = Metabolic stability in rat liver S9 fraction at 1 uM by HPLC; type: ADME, subcellular
[26] = Clearance in rat; type: ADME, organism-based; conditions: in vivo
[27] = Half life in rat; type: ADME, organism-based; conditions: in vivo
[28] = Oral bioavailability in rat; type: ADME, organism-based; conditions: in vivo
[29] = Oral bioavailability in rat at 5 mg/kg; type: ADME, organism-based; conditions: in vivo
[30] = Half life in rat at 1 mg/kg, iv and 5 mg/kg, po; type: ADME, organism-based; conditions: in vivo
[31] = Clearance in rat at 1 mg/kg, iv and 5 mg/kg, po; type: ADME, organism-based; conditions: in vivo
[32] = Volume of distribution in rat at 1 mg/kg, iv and 5 mg/kg, po; type: ADME, organism-based; conditions: in vivo
[33] = AUC in rat at 5 mg/kg, po; type: ADME, organism-based; design: dose 5 mg/kg, route oral; conditions: plasma
[34] = Oral bioavailability in Beagle dog at 2.5 mg/kg; type: ADME, organism-based, Canis lupus familiaris; conditions: in vivo
[35] = Half life in Beagle dog at 0.5 mg/kg, iv and 2.5 mg/kg, po; type: ADME, organism-based, Canis lupus familiaris; conditions: in vivo
[36] = Clearance in Beagle dog at 0.5 mg/kg, iv and 2.5 mg/kg, po; type: ADME, organism-based, Canis lupus familiaris; conditions: in vivo
[37] = Volume of distribution in Beagle dog at 0.5 mg/kg, iv and 2.5 mg/kg, po; type: ADME, organism-based, Canis lupus familiaris; conditions: in vivo
[38] = AUC in Beagle dog at 2.5 mg/kg, po; type: ADME, organism-based, Canis lupus familiaris; design: dose 2.5 mg/kg, route oral; conditions: plasma
[39] = Oral bioavailability in cynomolgus monkey at 7.5 mg/kg; type: ADME, organism-based, Macaca fascicularis; conditions: in vivo
[40] = Half life in cynomolgus monkey at 0.75 mg/kg, iv and 7.5 mg/kg, po; type: ADME, organism-based, Macaca fascicularis; conditions: in vivo
[41] = Clearance in cynomolgus monkey at 0.75 mg/kg, iv and 7.5 mg/kg, po; type: ADME, organism-based, Macaca fascicularis; conditions: in vivo
[42] = Volume of distribution in cynomolgus monkey at 0.75 mg/kg, iv and 7.5 mg/kg, po; type: ADME, organism-based, Macaca fascicularis; conditions: in vivo
[43] = AUC in cynomolgus monkey at 7.5 mg/kg, po; type: ADME, organism-based, Macaca fascicularis; design: dose 7.5 mg/kg, route oral; conditions: plasma

T1 sequence (Q12809 whole entry): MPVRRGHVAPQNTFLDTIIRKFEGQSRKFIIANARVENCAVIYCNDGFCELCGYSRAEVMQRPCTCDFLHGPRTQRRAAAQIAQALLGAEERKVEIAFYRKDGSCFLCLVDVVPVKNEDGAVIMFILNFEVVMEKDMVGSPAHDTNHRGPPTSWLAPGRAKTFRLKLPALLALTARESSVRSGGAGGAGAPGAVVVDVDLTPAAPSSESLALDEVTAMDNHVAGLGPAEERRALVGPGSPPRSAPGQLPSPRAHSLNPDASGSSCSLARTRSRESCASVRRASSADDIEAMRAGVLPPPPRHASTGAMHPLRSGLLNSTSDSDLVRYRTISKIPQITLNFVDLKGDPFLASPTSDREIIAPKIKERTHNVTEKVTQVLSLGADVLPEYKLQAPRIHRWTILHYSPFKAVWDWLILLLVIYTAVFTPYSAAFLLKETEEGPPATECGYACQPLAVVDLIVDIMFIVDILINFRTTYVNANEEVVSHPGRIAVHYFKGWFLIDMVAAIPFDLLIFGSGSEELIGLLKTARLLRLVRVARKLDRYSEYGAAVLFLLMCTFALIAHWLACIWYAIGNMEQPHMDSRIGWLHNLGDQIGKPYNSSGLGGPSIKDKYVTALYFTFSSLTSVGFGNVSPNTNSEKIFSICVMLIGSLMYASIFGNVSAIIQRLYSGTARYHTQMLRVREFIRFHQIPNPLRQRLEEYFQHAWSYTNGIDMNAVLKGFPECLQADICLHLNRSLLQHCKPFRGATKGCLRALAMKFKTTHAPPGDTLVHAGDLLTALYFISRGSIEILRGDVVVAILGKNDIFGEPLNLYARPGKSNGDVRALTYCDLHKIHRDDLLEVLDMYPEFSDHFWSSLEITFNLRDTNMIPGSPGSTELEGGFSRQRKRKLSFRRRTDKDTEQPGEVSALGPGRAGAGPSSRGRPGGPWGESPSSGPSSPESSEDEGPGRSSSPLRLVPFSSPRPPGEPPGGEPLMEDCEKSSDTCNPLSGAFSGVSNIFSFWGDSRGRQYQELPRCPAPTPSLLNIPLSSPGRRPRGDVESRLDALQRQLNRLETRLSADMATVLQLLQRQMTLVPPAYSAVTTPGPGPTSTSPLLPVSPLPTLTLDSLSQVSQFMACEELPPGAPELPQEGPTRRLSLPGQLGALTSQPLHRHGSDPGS

CN(C)C(=N)c1ccc(C(=O)Nc2ccc(Cl)cc2C(=O)Nc2ccc(Cl)cn2)cc1
fraction unbound at 0.5 h, 10 µM [1]: 0.881 | IC50 [2]: 330 nM | IC50 (Prothrombin): > 10000 nM | IC50 [3]: > 10000 nM | IC50 [4]: > 10000 nM | IC50 [5]: > 10000 nM | IC50 (Plasminogen): > 10000 nM | IC50 [6]: 510 nM | bioavailability [7]: 26.1% | half-life [8]: 12.8 h | clearance [9]: 29.7 mL/min/kg | Vd [10]: 26.1 L/kg | AUC [11]: 885 ng·h/mL | bioavailability [12]: 64.9% | half-life [13]: 15.3 h | clearance [14]: 34 mL/min/kg | Vd [15]: 45.7 L/kg | AUC [16]: 320 ng·h/mL | bioavailability [17]: 73% | half-life [18]: 19.4 h | clearance [19]: 26.7 mL/min/kg | Vd [20]: 36.5 L/kg | AUC [21]: 512 ng·h/mL | Ki [22]: 110 nM

CN(C)C(=N)c1ccc(C(=O)Nc2ccccc2C(=O)Nc2ccc(Cl)cn2)cc1
bioavailability [23]: 31%

CSc1ccc(NC(=O)c2ccc(C(=N)N(C)C)cc2)c(C(=O)Nc2ccc(Cl)cn2)c1
IC50 (Coagulation factor X): < 0.5 nM | half-life at 1 µM [24]: > 2 h | half-life at 1 µM [25]: > 2 h | clearance [26]: 77.1 mL/min/kg | half-life [27]: 16.5 h | bioavailability [28]: 26.7%

CN(C)C(=N)c1ccc(C(=O)Nc2ccc(Cl)cc2C(=O)Nc2ccc(Cl)cn2)c(F)c1
IC50 (Coagulation factor X): < 0.5 nM | Ki (Coagulation factor X): 0.06 nM | IC50 (Prothrombin): > 10000 nM | IC50 [3]: > 10000 nM | IC50 [4]: > 10000 nM | IC50 [5]: > 10000 nM | IC50 (Plasminogen): > 10000 nM | IC50 [6]: 540 nM | bioavailability [7]: 38% | half-life [8]: 5.2 h | clearance [9]: 15.3 mL/min/kg | Vd [10]: 6.9 L/kg | AUC [11]: 2420 ng·h/mL | bioavailability [12]: 68.8% | half-life [13]: 13.1 h | clearance [14]: 30.5 mL/min/kg | Vd [15]: 35.1 L/kg | AUC [16]: 381 ng·h/mL | bioavailability [17]: 86.1% | half-life [18]: 22.8 h | clearance [19]: 11.2 mL/min/kg | Vd [20]: 20.5 L/kg | AUC [21]: 1300 ng·h/mL | clearance [26]: 15.3 mL/min/kg | bioavailability [28]: 38% | Ki [22]: 420 nM

C#Cc1ccc(NC(=O)c2cc(Cl)ccc2NC(=O)c2ccc(C(=N)N(C)C)cc2)nc1
IC50 (Coagulation factor X): 0.8 nM | half-life at 1 µM [24]: > 2 h | half-life at 1 µM [25]: > 2 h | clearance [26]: > 100 mL/min/kg | half-life [27]: 6.3 h

COc1ccc(NC(=O)c2ccc(C(=N)N(C)C)cc2F)c(C(=O)Nc2ccc(Cl)cn2)c1
IC50 (Coagulation factor X): 0.7 nM | Ki (Coagulation factor X): 0.105 nM | fraction unbound at 0.5 h, 10 µM [1]: 0.634 | IC50 [2]: 4200 nM | IC50 [6]: 7200 nM | bioavailability [29]: 48.6% | half-life [30]: 5.5 h | clearance [31]: 57.5 mL/min/kg | Vd [32]: 26.5 L/kg | AUC [33]: 770 ng·h/mL | bioavailability [34]: 88.9% | half-life [35]: 7.9 h | clearance [36]: 24.6 mL/min/kg | Vd [37]: 16.8 L/kg | AUC [38]: 1500 ng·h/mL | bioavailability [39]: 77.6% | half-life [40]: 11.4 h | clearance [41]: 16.2 mL/min/kg | Vd [42]: 16.3 L/kg | AUC [43]: 6170 ng·h/mL | Ki [22]: 2100 nM

COc1ccc(NC(=O)c2ccc(C(=N)N(C)C)cc2)c(C(=O)Nc2ccc(Cl)cn2)c1 [BETRIXABAN]
fraction unbound at 0.5 h, 10 µM [1]: 0.8 | IC50 (Prothrombin): > 10000 nM | IC50 [3]: > 10000 nM | IC50 [4]: > 10000 nM | IC50 [5]: > 10000 nM | IC50 (Plasminogen): > 10000 nM | IC50 [6]: 6300 nM | bioavailability [29]: 23.8% | half-life [30]: 8.8 h | clearance [31]: 43.6 mL/min/kg | Vd [32]: 32.9 L/kg | AUC [33]: 456 ng·h/mL | bioavailability [34]: 51.6% | half-life [35]: 21.2 h | clearance [36]: 26.5 mL/min/kg | Vd [37]: 48.8 L/kg | AUC [38]: 825 ng·h/mL | bioavailability [39]: 58.7% | half-life [40]: 9.6 h | clearance [41]: 18.7 mL/min/kg | Vd [42]: 13.4 L/kg | AUC [43]: 4180 ng·h/mL
